Here are results for eight compounds from ChEMBL document CHEMBL2203011, “Psammaplysin derivatives from the Balinese marine sponge Aplysinella strongylata” (J Nat Prod, 2012).

The source made the active and inactive calls. No cut-off for these calls is given here.

One test deals with Plasmodium falciparum. In words: Antiplasmodial activity against chloroquine-sensitive Plasmodium falciparum 3D7 infected in erythrocytes assessed as growth inhibition at 10 uM incubated for 48 hrs by [3H]hypoxanthine incorporation assay. In kind it is functional, organism-based.
As for `COC1=C(Br)C[C@]2(OC=C1Br)ON=C(C(=O)NCCCOc1c(Br)cc(C(O)CNC=C3C(=O)C=CC3=O)cc1Br)[C@@H]2O` (some centres undefined), the “growth inhibition (GI)” value is “Active”.

As to `CCCCCCCCCCCCCCCCCC(=O)NCC(O)c1cc(Br)c(OCCCNC(=O)C2=NO[C@@]3(CC(Br)=C(OC)C(Br)=CO3)[C@H]2O)c(Br)c1` (some centres undefined), the “growth inhibition (GI)” value is “inactive”.

Consider `COC1=C(Br)C[C@]2(OC=C1Br)ON=C(C(=O)NCCCOc1c(Br)cc(C3CNC(=O)O3)cc1Br)[C@@H]2O` (some centres undefined), for which the “growth inhibition (GI)” value is “inactive”.

Take `COC1=C(Br)C[C@]2(OC=C1Br)ON=C(C(=O)NCCCOc1c(Br)cc(CCNC(=O)CCCCCCCCCCCCC(C)C)cc1Br)[C@@H]2O`: the “growth inhibition (GI)” value is “inactive”.

Take `CCCCC/C=C\CCCCCCCCC(=O)NCCc1cc(Br)c(OCCCNC(=O)C2=NO[C@@]3(CC(Br)=C(OC)C(Br)=CO3)[C@H]2O)c(Br)c1`: the “growth inhibition (GI)” value was “inactive”.

With `COC1=C(Br)C[C@]2(OC=C1Br)ON=C(C(=O)NCCCOc1c(Br)cc(C=O)cc1Br)[C@@H]2O`, the “growth inhibition (GI)” value was “inactive”.

In the case of `CCC(C)CCCCCCCCCCCCCCC(=O)NCCc1cc(Br)c(OCCCNC(=O)C2=NO[C@@]3(CC(Br)=C(OC)C(Br)=CO3)[C@H]2O)c(Br)c1` (some centres undefined), the “growth inhibition (GI)” value was “inactive”.

In the case of `COC1=C(Br)C[C@]2(OC=C1Br)ON=C(C(=O)NCCCOc1c(Br)cc(CCNC(=O)CO)cc1Br)[C@@H]2O`, the “growth inhibition (GI)” value was “inactive”.

A further test has as its system Plasmodium falciparum. In words: Antiplasmodial activity against chloroquine-sensitive Plasmodium falciparum 3D7 infected in erythrocytes assessed as growth inhibition incubated for 48 hrs by [3H]hypoxanthine incorporation assay. In kind it is functional, organism-based.
A word on the IC50: it is the point on the concentration scale where inhibition reaches its midpoint. `COC1=C(Br)C[C@]2(OC=C1Br)ON=C(C(=O)NCCCOc1c(Br)cc(C(O)CNC=C3C(=O)C=CC3=O)cc1Br)[C@@H]2O` (some centres undefined): the half-inhibitory concentration (IC50) is 6.4 µM.
